Assays:
Fas receptor = assay: Retinal levels of Fas receptor after verteporfin PDT; assay type: in vivo; settings: rat retina, FIG. 3
[1] = typical; cited from earlier work

| Compound | retinal levels of the apoptotic death receptor Fas (Fas receptor) | persistence in the target neovasculature [1] |
| --- | --- | --- |
| verteporfin | increases | – |
| C=Cc1c(C)c2cc3nc(c(CC(=O)N[C@@H](CC(=O)O)C(=O)O)c4[nH]c(cc5nc(cc1[nH]2)C(C)=C5CC)c(C)c4C(=O)O)[C@@H](CCC(=O)O)[C@@H]3C [N-aspartyl chlorin e6] | – | about twenty |
| O=C([O-])c1c(Cl)c(Cl)c(Cl)c(Cl)c1-c1c2cc(I)c(=O)c(I)c-2oc2c(I)c([O-])c(I)cc12.[Na+].[Na+] [rose bengal] | – | about ten |
| CC(=O)[O-].CC(=O)[O-].CCc1c(CC)c2cc3nc(cnc4cc(OCCOCCOCCOC)c(OCCOCCOCCOC)cc4ncc4nc(cc1[n-]2)C(CCCO)=C4C)C(C)=C3CCCO.O.[Lu+3] [lutetium texaphyrin] | – | about twenty |
| benzoporphyrin derivative | – | about fifty |
